How the values were obtained:
[1] = test system: sheep; assay: Intravenous and aerosolized UT-15 dose response on baseline hemodynamics (Example IV); type: in vivo; conditions: baseline conditions; for PCV relative to baseline: any dose; for CO relative to baseline: any delivery rate; for PSYS: any rate
Protocol: Six yearling sheep (3 males, 3 females; 21-37 kg) were fasted 18-24 hours and initially anesthetized with a short acting barbiturate (thiopental) to allow intubation of the sheep. Halothane gas anesthesia (1.5-2.5%) was then used for the surgical procedures. Via a left thoracotomy, a Transonic blood flow probe was placed around the main pulmonary artery, silastic catheters placed in the main pulmonary artery and left atrium. After approximately 7 days the sheep were reanesthetized and the left carotid artery cannulated, a Cordis Introducer Sheath inserted in the left jugular vein, and a tracheotomy made. The sheep were allowed to recover for another 3-5 days prior to experimentation. These sheep were used to allow measurement of pulmonary arterial pressure (PPA), left atrial pressure (PLA), central venous pressure (PCV), systemic arterial pressure (PSYS), heart rate (HR), and cardiac output (CO) after baseline measurements were made for a minimum of 30 minutes. Two separate experiments were conducted to determine the dose response effects of intravenously infused UT-15 on baseline hemodynamics and aerosolized UT-15 on baseline hemodynamics. For the infusion experimental protocol, after a 30 minute baseline was established, UT-15 was infused intravenously at 3 rates (250, 500 and 1000 ng per kg per min). In three sheep, the infusion rates lasted for 30 minutes each, and for the other three sheep, the infusions were for 60 minutes each. […] Again, three sheep were aerosolized for 30 minutes and the other three sheep were aerosolized for 60 minutes.

[2] = test system: sheep; assay: Intravenous and aerosolized UT-15 dose response during U44069 induced pulmonary hypertension (Example V); type: in vivo; conditions: for left atrial pressure: all three delivery rates
Source text: Sheep were used as the animal model of choice for these experiments for a number of reasons. First is the docile nature of sheep. They will stand quietly in metabolic cages without having to utilize tranquilizing drugs, which have the potential to complicate experimental results. Second, sheep are large enough to allow direct measurement of CO, PPA, PLA, PCV, and PSYS. Sheep are also large enough to allow direct aerosolization of substances into the lung via trachoestomy thereby preventing swallowing of drugs and thus eliminating a possible secondary route of administration of UT-15. Third, sheep can tolerate a great amount of instrumentation with little or no discomfort. Fourth, sheep have been utilized for several years as an animal model of pulmonary arterial hypertension and thus, there is a great amount of historical data with which to compare the results. […] The reasons for using U44069 are that it is a very potent pulmonary vasoconstrictor, its characteristics are very similar to endogenously formed thromboxane A2, and it can be titrated to induce the desired degree of pulmonary vasoconstriction. U44069 was mixed with sterile normal saline immediately prior to being used and was protected from light by wrapping the solution with aluminum foil. The concentration of U44069 was adjusted such that a minimal flow rate of 0.8 ml per min was being infused into the sheep. This was done because more concentrated U44069 would have to be infused at very low rates and often causes “pulses” of U44069 due to the infusion characteristics of roller pumps. The U44069 pulses cause vasoconstriction “spikes” and thus would create induce a non-steady-state. Six yearling sheep (3 males, 3 females; 21-37 kg) were fasted 18-24 hours and initially anesthetized with a short acting barbiturate (thiopental) to allow intubation of the sheep. Halothane gas anesthesia (1.5-2.5%) was then used for the surgical procedures. Via a left thoracotomy, a Transonic blood flow probe was placed around the main pulmonary artery, silastic catheters placed in the main pulmonary artery and left atrium. After approximately 7 days the sheep were reanesthetized and the left carotid artery cannulated, a Cordis Introducer Sheath inserted in the left jugular vein, and a tracheotomy made. The sheep were allowed to recover for another 3-5 days prior to experimentation. These sheep were used to allow measurement of pulmonary arterial pressure (PPA), left atrial pressure (PLA), central venous pressure (PCV), systemic arterial pressure (PSYS), heart rate (HR), and cardiac output (CO) after baseline measurements were made for a minimum of 30 minutes. Two separate experiments were conducted to determine the dose response effects of intravenously infused UT-15 and aerosolized UT-15 during U44069 induced pulmonary hypertension. After a 30 minute baseline was established, U44069 was infused intravenously at a rate of 1 ng per kg per min. For the intravenous administration of UT-15 and after allowing the sheep to achieve a steady-state for 30-60 minutes, a dose-response to intravenous UT-15 was similar to that set forth in Example IV. For the aerosolized administration of UT-15 and after allowing the sheep to achieve a steady-state for 30-60 minutes, a dose-response to intravenous UT-15 was similar to that set forth in Example IV. In each experimental protocol, UT-15 was administered to three sheep for 30 minutes and to the other three sheep for 60 minutes.

[3] = test system: digital ischemic lesions; assay: Study of Treprostinil for digital ischemic lesions in patients with systemic sclerosis (Example VIII); type: in vivo, human
Protocol: This study involved 12 subjects with diffuse or limited scleroderma with at least one DIL that had been present for 2 months or more (Table 1). Subjects who completed the study were treated for 12 weeks with Treprostinil and followed for another 8 weeks after drug discontinuation (FIG. 1). […] Assessments were performed at baseline, weeks 2, 6, 12, 16, and 20. At each visit, the largest (target) lesion and other prominent DIL were measured by recording the largest diameter of the lesions. DIL were counted and photographed. Patient and physician global assessment of ulcers as well as patient assessment of disability from DIL were measured using visual analogue scales (VAS) at each visit.

[4] = test system: human pulmonary arterial smooth muscle cells; conditions: cited from earlier work
[5] = test system: human alveolar macrophages; conditions: cited from earlier work
[6] = test system: patients with class III or class IV heart failure; conditions: cited from earlier work
[7] = during U44069 infusion, aerosol
[8] = during U44069 infusion, aerosolized
[9] = during U44069 infusion, intravascular
[10] = during U44069 infusion, intravenous

SMILES: CCCCC[C@H](O)CC[C@@H]1[C@H]2Cc3cccc(OCC(=O)O)c3C[C@H]2C[C@H]1O [UT-15, 9-deoxy-2′,9-alpha-methano-3-oxa-4,5,6-trinor-3,7-(1′,3′-interphenylene)-13,14-dihydro-prostaglandin F1]
- PCV relative to baseline ([1]; aerosol): no statistical difference
- PLA relative to baseline ([1]; aerosolized (mean values increased)): neither intravenous nor aerosolized UT-15 caused PLA to significantly change
- heart rate ([1]; aerosolized, 3 rates): no effect
- pulmonary vascular driving pressure (PPA minus PLA) change from baseline ([1]; aerosolized, 250, 500, and 100 ng per kg per min): significant
- PVR ([1]; aerosolized, all 3 delivery rates): significant decrease
- CO relative to baseline ([1]; aerosolized): no significant changes
- PSYS ([1]; aerosolized): no significant effect
- PPA relative to baseline ([1]; aerosolized, not statistically different): general trend for PPA to decrease
- PVR ([1]; intravenous): no significant effect
- heart rate ([1]; intravenous 250, 500 and 1000 ng per kg per min): significantly increased
- PLA relative to baseline ([1]; intravenous (mean values decreased)): neither intravenous nor aerosolized UT-15 caused PLA to significantly change
- CO relative to baseline ([1]; intravenous): no significant changes
- PCV relative to baseline ([1]; intravenous): no statistical difference
- PSYS ([1]; intravenous): no significant effect
- PPA relative to baseline ([1]; intravenous, same as PCV (no statistical difference)): The same effects were also observed
- cardiac output [2, 7]: no effect
- time at which UT-15 began to attenuate the increase in PVR [2, 7]: 4 to 5 min
- left atrial pressure [2, 7]: increased above baseline
- heart rate [2, 8]: no effect
- off response (PVR) [2, 8]: 43 min
- systemic arterial pressure [2, 8]: no statistical differences
- PPA ([2]; during U44069 infusion, aerosolized, 500 and 1000 ng per kg per min): back to normal values
- PVR relative to baseline PVR ([2]; during U44069 infusion, aerosolized, any of the three delivery rates): no significant difference
- PPA relative to U44069 value [2, 9]: decrease significantly
- pulmonary vascular driving pressure (PPA-PLA) [2, 9]: unchanged
- off response (PVR) [2, 10]: 12 min
- systemic arterial pressure [2, 10]: no statistical differences
- time at which UT-15 began to attenuate the increase in PVR [2, 10]: 4 to 5 min
- central venous pressure ([2]; during U44069 infusion, intravenous, 500 and 1000 ng per kg per min): different from the U44069 values
- heart rate ([2]; during U44069 infusion, intravenous, 500 and 1000 ng per kg per min different from U44069 values): increase above the values during U44069 conditions
- cardiac output ([2]; during U44069 infusion, intravenous, significant at 500 and 100 ng per kg per min): dose-response increase
- left atrial pressure ([2]; during U44069 infusion, intravenously infused): significant decrease from the U44069 value
- U44069-induced increase in PVR ([2]; intravenously infused, 500 and 1000 ng per kg per min): significantly attenuated
- physician global assessment of DIL severity, average improvement ([3]; after 12 weeks of therapy): 60%
- patients who developed new ulcers during the 8-week follow-up period after drug discontinuation ([3]; after drug discontinuation): two of three
- new ulcers while receiving continuous therapy ([3]; any patients): No new ulcers
- subjective measures of severity of DIL (patient and physician global assessment, DIL disability VAS) ([3]; by week 6, all five subjects): marked improvements
- DIL disability VAS score, average improvement ([3]; by week 12): 77%
- patient global assessment, average improvement ([3]; by week 12): 89%
- average decrease in the size of baseline DIL ([3]; continuous sc infusion, 12 weeks): 65%
- target lesions ([3]; four subjects who completed 12 weeks of active therapy, sc infusion up to 15 ng/kg/min): improved in all patients
- subjects unable to complete the study due to intolerable injection site pain ([3]; of 12 subjects): five
- subjects with complete resolution of their target lesions ([3]; of the four subjects who completed 12 weeks): three
- proliferation of human pulmonary arterial smooth muscle cells [4]: inhibits proliferation
- inflammatory cytokine (tumor necrosis factor-α, interleukin-1β, interleukin-6, GM-CSF) secretion and gene expression [5]: inhibits
- vasodilator effects [6]: vasodilator effects

From patent US10076505B2, “Inhalation formulations of Treprostinil” (priority 2003, dated 2018)
